The source of these data is US20250346629A1, “USE OF D-ENANTIOMERIC PEPTIDE LIGANDS OF MONOMERIC ALPHA-SYNUCLEIN FOR THE THERAPY OF VARIOUS SYNUCLEINOPATHIES” (PRIAVOID GMBH, priority 2021, published 2025).

Each structure is given as a SMILES string. Square brackets hold non-standard residues; d marks the D form. Peptide text beside a SMILES is read from it.

Usually Kd stands for the concentration at which binding is half-saturated. As a reminder, the koff is the rate constant with which the complex falls apart. Higher therefore signals fast dissociation.

One data set deals with PC12 cells. It counts as cell-based. The following applies: rat, 24 h, 0.5 μM. As to the method: PC12 cells (Leibniz-Institut DSMZ, GE) were cultured at 37° C. on a collagen A-coated (Biochrom GmbH, GE) tissue culture flask in RPMI 1640 medium, supplemented with 5% fetal calf serum and 10% horse serum in an atmosphere humidified to 95% with 5% CO2. 10 000 cells per well in a volume of 100 μl were seeded into collagen A-coated 96-well plates (Thermo Fisher Scientific, USA and incubated for 24 hours at 37° C. and 300 rpm in a thermocycler.
Furthermore, 15 μM of the peptides alone, cell media, buffer without peptide and 0.1% Triton X-100 (cytotoxic compound) were used as controls. After further incubation in a 95% humidified atmosphere with 5% CO2 at 37° C. for 24 hours, the viability of the cells was measured using the Cell Proliferation Kit I (MTT) (Roche Applied Science, CH), following the manufacturer's protocol.
The MTT-formazan product was quantified by measuring the absorbance at 570 nm, corrected by subtracting the absorbance at 660 nm, in a FluoroStar Optima plate reader (BMG labtech, GE). All results were normalized to untreated cells grown only in medium. The significance test was carried out by one-way ANOVA with Bonferroni post-hoc analysis (OriginPro 2020, OriginLab, USA; n=4).
The significance test was carried out by one-way ANOVA with Bonferroni post-hoc analysis: […], ***p≤0.01. The means are stated±SD (n=4).

Another data set concerns the target monomeric α-syn (Homo sapiens, UniProt P37840). The data set can be described thus: Size-exclusion chromatography of monomeric α-syn after incubation with SVD-1a (FIG. 13). Format: biochemical. The following applies: 10 μM α-syn monomer with 0-80 μM SVD-1a, 2 h, 37° C., 300 rpm. As to the method:
10 μM α-syn monomer were incubated with 0, 5, 10, 20, 40 and 80 μM SVD-1a in PBS, pH 7.4, for 2 h at 37° C. and 300 rpm. The SEC was carried out with a Bio SEC-3 column (150 Å, Agilent, USA) at 1 ml min^−1 and PBS, pH 7.4, as mobile phase. The samples were centrifuged for 5 minutes at 20 800×g before the supernatant was injected. The protein was detected at A214. α-syn monomer eluted after 6.91 min retention time. The peak area of the α-syn monomer was integrated for the 10 μM α-syn sample and set to 100%. The concentration of monomeric α-syn was not reduced in the presence of increasing concentrations of SVD-1a. SVD-1a itself was only eluted during the purification and regeneration procedure of the SEC, which is highly probably attributable to its high net positive charge.

A further data set deals with α-syn (Homo sapiens, UniProt P37840). In words: Kinetic single-cycle SPR assay with α-syn and immobilized peptides, CMD200M (FIG. 11). It counts as binding. The following applies: kinetic 1:1 interaction model. The procedure:
The measurements were carried out using an 8K-Biacore device (Cytiva, USA). The interactions were measured using single-cycle kinetics experiments. In all assays, the peptide compounds were immobilized as ligands on the sensor surface and recombinant α-syn was injected into the flow as the analyte. […] Surface quenching was carried out with 1 M ethanolamine at pH 8.3. Unless stated otherwise, the kinetic experiments were carried out at a flow rate of 30 μl/min in PBS, pH 7.4. The surface was regenerated between cycles using 30 s injections of 2 M Gua-HCl at 30 μl/min. Data evaluation was performed using the evaluation software Biacore insight v3.0 (Cytiva, USA).
The experiment was carried out as an individual measurement.

Data set [1] in a line: Solubility of D-peptides in buffer (UV-vis of supernatant after centrifugation). Format: physicochemical. To be noted: different buffers including PBS, aqueous buffer; different buffer conditions including PBS pH 7.4; 1 h at 37° C., 20 800×g centrifugation; read-out: starting concentration up to which the compound remained completely in the supernatant. An excerpt:
D-enantiomeric peptides with C-terminal amidation were acquired from CASLO (CASLO, DK) as a lyophilized chloride salt powder having a purity of >95%.

For the compound `CC[C@@H](C)[C@@H](NC(=O)[C@@H](Cc1c[nH]cn1)NC(=O)[C@@H](CCC(=O)O)NC(=O)[C@@H](CCC(N)=O)NC(=O)[C@@H](Cc1c[nH]c2ccccc12)NC(=O)[C@@H](Cc1ccc(O)cc1)NC(=O)[C@H](NC(=O)[C@@H](CCC(=O)O)NC(=O)[C@@H](Cc1c[nH]cn1)NC(=O)[C@H](NC(=O)[C@H]1CCCN1C(=O)[C@@H](CC(C)C)NC(=O)[C@H](N)CCCNC(=N)N)[C@H](C)O)[C@H](C)O)C(=O)N[C@H](Cc1c[nH]c2ccccc12)C(=O)N[C@H](Cc1c[nH]cn1)C(=O)N[C@H](C)C(=O)N[C@H](CCCNC(=N)N)C(=O)N[C@H](CCCNC(=N)N)C(=O)N[C@H](CCCNC(=N)N)C(=O)N[C@H](CCCNC(=N)N)C(=O)N[C@H](CCCNC(=N)N)C(N)=O` [SVD-1a, rlpthetywqehiwharrrrr] (H-[dR][dL][dP][dT][dH][dE][dT][dY][dW][dQ][dE][dH][dI][dW][dH][dA][dR][dR][dR][dR][dR]-NH2), in the data set on PC12 cells, the “cells saved (cell viability)” value was 82%. In addition, at monomeric α-syn, the “concentration of monomeric α-syn (SEC peak area)” value is on record as “not reduced”. The compound also gave a Kd on α-syn (PBS 7.4, individual measurement) of 0.1 nM. On α-syn (PBS 7.4, as printed for SVD-1a), this compound yielded a koff of 3.13e-05 s⁻¹. For the same compound, the solubility at 1 h in data set [1] is no less than 1000 µM.
